In ChEMBL document CHEMBL1201862, “PubChem BioAssay data set” (2004) one finds EC50, IC50 and AC50 data, which are given here for 4 compounds.

Calls of active or inactive are those of the source.

Assay [1] concerns HEK293. As to the kind of experiment: inhibition of NOD1-driven NF-kB reporter – cell-based, luminescence, uHTS, primary screen (AID 1578). It counts as functional. The conditions noted are these: Homo sapiens.
Assay [2] deals with HEK293. The assay is described as follows: cells. It counts as functional, cell-based. The conditions noted are these: Homo sapiens.
For assay [3], the system named is HEK293. The assay is described as follows: cells. Type of assay: functional, cell-based. The settings on record: Homo sapiens. This is another data set of the same source.
For assay [4], the target named is Nucleotide-binding oligomerization domain-containing protein 2 (Homo sapiens, UniProt Q9HC29). As to the kind of experiment: inhibition of NOD2-driven NF-kB reporter – cell-based, luminescence, uHTS, HEK293 (AID 1566). Type of assay: functional.
Sequence of Nucleotide-binding oligomerization domain-containing protein 2 (Q9HC29 whole entry, the tested form may be a part): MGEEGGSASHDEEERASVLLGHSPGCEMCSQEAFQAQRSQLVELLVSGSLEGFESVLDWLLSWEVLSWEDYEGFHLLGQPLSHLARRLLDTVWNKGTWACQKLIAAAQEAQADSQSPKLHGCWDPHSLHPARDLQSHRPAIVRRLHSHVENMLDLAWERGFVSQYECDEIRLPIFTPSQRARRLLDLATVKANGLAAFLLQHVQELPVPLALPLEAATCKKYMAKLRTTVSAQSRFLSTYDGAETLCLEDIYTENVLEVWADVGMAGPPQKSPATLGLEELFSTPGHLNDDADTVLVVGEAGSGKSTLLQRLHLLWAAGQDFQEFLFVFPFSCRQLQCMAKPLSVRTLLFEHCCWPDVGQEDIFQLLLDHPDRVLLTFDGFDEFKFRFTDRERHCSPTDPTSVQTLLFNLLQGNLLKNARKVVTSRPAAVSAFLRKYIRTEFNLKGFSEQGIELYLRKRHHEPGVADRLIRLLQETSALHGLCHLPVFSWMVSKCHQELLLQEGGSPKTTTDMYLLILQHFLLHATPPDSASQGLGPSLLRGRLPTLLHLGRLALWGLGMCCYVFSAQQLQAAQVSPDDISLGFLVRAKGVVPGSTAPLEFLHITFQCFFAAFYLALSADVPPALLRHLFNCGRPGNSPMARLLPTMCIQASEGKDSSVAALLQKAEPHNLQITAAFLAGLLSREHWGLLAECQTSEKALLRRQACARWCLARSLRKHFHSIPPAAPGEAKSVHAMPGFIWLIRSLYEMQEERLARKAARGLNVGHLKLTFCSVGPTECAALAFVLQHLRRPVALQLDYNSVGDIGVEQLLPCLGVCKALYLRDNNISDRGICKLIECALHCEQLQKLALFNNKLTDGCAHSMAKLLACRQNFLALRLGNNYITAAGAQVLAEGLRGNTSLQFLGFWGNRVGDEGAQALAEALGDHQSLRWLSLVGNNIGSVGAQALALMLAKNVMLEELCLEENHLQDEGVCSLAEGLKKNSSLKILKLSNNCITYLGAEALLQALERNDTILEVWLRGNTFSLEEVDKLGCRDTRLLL
The test system of assay [5] is HEK293. As to the kind of experiment: NOD2 signaling inhibitors in MDP-stimulated cells, cell-based, uHTS, luminescence (AID 2001). Type of assay: functional. The conditions noted are these: Homo sapiens.
Assay [6] can be described thus: Trypanosoma cruzi growth suppression in host cells – NIH3T3 host cells, beta-gal luminescence, confirmation (AID 2044).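 Further: intracellular parasites grown in NIH/3T3 mouse fibroblasts as host cells; luminescent beta-galactosidase reporter signal from transgenic T. cruzi replicating inside host cells; inhibitors lower the luminescence signal.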 It counts as functional, cell-based.
In assay [7] the test system is HEK293. The assay is described as follows: cells. Type of assay: functional, cell-based. The conditions noted are these: Homo sapiens. The source holds these as a separate data set.
The nature of assay [8]: viability of PTEN-deleted HCT116 cells – cell-based, HCT116 PTEN knockout, dose response (AID 1047).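 Further: HCT116 colon tumor cells with PTEN knocked out; cells exposed to compound for 60 hours before readout; potency for loss of cell viability measured by luminescence.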 Type of assay: functional.
Assay [9] in a line: viability of HCT116 lacking mutant beta-catenin – cell-based, human colon tumor, dose response (AID 1045).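 Further: HCT116 colon tumor cells with beta catenin knocked out; cells exposed to compound for 60 hours.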 It counts as functional.
Assay [10] in a line: Luminescence Cell-Based Dose Retest to Confirm Inhibitors of Cancer Stem Cells. [Related pubchem assays (depositor defined):AID2717, AID2721]. The conditions noted are these: Homo sapiens. Type of assay: functional.
The target in assay [11] is Neurotensin receptor type 1 (Homo sapiens, UniProt P30989). Type of assay: functional.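 Further: Image-based confirmatory dose-response assay measuring agonist activity at NTR1; NTR1-expressing U2OS osteosarcoma cells imaged for beta-arrestin GFP spot formation; agonist potency where compounds increase beta-arrestin recruitment.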
Sequence of Neurotensin receptor type 1 (P30989 whole entry): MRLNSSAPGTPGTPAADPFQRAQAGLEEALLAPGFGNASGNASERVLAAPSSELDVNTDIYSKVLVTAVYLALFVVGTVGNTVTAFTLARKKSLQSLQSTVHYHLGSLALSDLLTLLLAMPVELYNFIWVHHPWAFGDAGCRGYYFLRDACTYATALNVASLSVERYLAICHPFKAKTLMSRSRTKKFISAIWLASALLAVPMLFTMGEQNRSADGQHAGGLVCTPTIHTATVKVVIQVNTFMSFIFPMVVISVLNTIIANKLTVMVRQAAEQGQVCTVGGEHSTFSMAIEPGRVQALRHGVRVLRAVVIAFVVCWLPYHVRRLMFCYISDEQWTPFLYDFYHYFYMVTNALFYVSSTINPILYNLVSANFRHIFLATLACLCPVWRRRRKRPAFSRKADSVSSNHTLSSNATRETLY
A further assay deals with INS1. As to the kind of experiment: INS-1E survival protection against cytokine death – cell-based, luminescence, retest, dose response (AID 449756).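 Further: cell death triggered by IL-1 beta plus TNF-alpha plus IFN-gamma mixture; protective hits raise ATP signal compared with cytokine alone wells.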 It counts as functional. The settings on record: Rattus norvegicus.
In the next assay the target is T1, Estrogen receptor (Homo sapiens, UniProt P03372).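 Further: potency for inhibiting coactivator peptide recruitment to the receptor.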
T1 sequence (P03372 whole entry): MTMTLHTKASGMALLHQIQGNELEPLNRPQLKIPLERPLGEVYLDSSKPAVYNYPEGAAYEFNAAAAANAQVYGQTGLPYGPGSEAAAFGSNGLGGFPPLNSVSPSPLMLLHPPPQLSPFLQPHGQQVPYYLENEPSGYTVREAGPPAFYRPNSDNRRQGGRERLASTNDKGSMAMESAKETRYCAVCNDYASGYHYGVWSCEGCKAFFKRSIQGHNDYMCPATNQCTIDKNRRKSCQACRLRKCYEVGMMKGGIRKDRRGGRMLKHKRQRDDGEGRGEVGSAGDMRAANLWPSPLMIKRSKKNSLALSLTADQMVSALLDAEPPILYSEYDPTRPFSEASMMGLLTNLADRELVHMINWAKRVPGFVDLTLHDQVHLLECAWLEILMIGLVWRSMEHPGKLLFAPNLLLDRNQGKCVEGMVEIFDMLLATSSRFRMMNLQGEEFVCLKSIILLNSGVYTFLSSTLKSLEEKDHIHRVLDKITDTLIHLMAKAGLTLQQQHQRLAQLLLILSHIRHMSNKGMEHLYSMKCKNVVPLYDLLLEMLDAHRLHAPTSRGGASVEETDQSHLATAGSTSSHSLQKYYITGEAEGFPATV

Assay [12] deals with G-protein coupled receptor 55 (Homo sapiens, UniProt Q9Y2T6). As to the kind of experiment: selective activators of receptor GPR55 – imaging, U2OS cells, beta-arrestin-GFP redistribution, primary screen (AID 1961). Type of assay: functional.
Sequence of G-protein coupled receptor 55 (Q9Y2T6 whole entry): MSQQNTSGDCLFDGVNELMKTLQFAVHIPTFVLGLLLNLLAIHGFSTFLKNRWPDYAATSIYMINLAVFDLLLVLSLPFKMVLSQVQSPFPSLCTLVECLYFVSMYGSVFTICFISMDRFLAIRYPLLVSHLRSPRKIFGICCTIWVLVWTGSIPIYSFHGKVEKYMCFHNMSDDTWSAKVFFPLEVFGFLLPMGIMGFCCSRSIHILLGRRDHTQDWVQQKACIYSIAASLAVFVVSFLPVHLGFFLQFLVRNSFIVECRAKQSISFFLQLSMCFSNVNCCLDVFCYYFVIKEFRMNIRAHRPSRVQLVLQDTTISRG
For the next assay, the target named is Mu-type opioid receptor (Homo sapiens, UniProt P35372). As to the kind of experiment: SAR Analysis of Antagonists of the MOR Receptor using an Image-Based Assay - Set 3. [Related pubchem assays (depositor defined):AID1777, AID1785, AID1786, AID1966, AID2133, AID2136, AID2284, AID2285, AID2420]. It counts as functional.
Sequence of Mu-type opioid receptor (P35372 whole entry): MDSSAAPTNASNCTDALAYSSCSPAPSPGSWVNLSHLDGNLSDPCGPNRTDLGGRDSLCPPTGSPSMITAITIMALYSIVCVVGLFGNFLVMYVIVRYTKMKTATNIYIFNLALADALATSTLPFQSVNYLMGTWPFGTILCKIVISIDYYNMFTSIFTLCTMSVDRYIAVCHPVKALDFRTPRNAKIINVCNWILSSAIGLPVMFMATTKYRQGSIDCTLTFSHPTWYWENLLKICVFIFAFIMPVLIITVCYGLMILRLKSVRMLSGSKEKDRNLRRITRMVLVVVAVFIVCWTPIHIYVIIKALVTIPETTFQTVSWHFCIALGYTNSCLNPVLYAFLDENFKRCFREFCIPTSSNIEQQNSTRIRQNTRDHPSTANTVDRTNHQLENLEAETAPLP
Assay [13] deals with T2, Kappa-type opioid receptor (Homo sapiens, UniProt P41145). As to the kind of experiment: SAR analysis of small molecule antagonists of the kappa opioid receptor via a luminescent beta-arrestin assay - Set 6. [Related pubchem assays (depositor defined):AID1777, AID1778, AID1785, AID1786, AID1966, AID2133, AID2136, AID2285]. Type of assay: functional.
T2 sequence (P41145 whole entry): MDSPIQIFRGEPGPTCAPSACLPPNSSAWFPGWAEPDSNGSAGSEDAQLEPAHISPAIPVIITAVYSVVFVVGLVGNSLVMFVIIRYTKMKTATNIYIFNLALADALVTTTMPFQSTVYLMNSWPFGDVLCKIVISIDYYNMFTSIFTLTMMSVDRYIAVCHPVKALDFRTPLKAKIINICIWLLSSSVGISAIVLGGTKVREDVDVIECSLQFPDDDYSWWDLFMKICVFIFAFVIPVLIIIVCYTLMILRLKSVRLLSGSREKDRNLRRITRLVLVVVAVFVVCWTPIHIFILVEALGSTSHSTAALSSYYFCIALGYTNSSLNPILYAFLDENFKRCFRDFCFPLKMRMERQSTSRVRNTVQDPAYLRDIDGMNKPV
The target in assay [14] is T2, Kappa-type opioid receptor. As to the kind of experiment: SAR analysis of small molecule antagonists of the kappa opioid receptor via a luminescent beta-arrestin assay - Set 4. [Related pubchem assays (depositor defined):AID1777, AID1778, AID1785, AID1786, AID1966, AID2133, AID2136, AID2285]. It counts as functional.
Assay [15] concerns the target Delta-type opioid receptor (Homo sapiens, UniProt P41143). As to the kind of experiment: SAR Analysis of Antagonists of the DOR Receptor using an Image-Based Assay - Set 3. [Related pubchem assays (depositor defined):AID1777, AID1785]. Type of assay: functional.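 Further: U2OS cells expressing DOR1 and beta-arrestin GFP stimulated with 100 nM SNC80; imaging of GFP-tagged beta-arrestin moving into spots after receptor activation.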
For assay [16], the target named is T2, Kappa-type opioid receptor. The assay is described as follows: SAR analysis of Antagonists of the Kappa Opioid Receptor (KOR) using an Image-Based Assay - Set 4. [Related pubchem assays (depositor defined):AID1777, AID1785]. Type of assay: functional.
The target of assay [17] is Alkaline phosphatase, placental type (Homo sapiens, UniProt P05187). The assay is described as follows: human placental alkaline phosphatase inhibition – biochemical, luminescence, confirmation (AID 1512). Type of assay: functional.
Sequence of Alkaline phosphatase, placental type (P05187 whole entry): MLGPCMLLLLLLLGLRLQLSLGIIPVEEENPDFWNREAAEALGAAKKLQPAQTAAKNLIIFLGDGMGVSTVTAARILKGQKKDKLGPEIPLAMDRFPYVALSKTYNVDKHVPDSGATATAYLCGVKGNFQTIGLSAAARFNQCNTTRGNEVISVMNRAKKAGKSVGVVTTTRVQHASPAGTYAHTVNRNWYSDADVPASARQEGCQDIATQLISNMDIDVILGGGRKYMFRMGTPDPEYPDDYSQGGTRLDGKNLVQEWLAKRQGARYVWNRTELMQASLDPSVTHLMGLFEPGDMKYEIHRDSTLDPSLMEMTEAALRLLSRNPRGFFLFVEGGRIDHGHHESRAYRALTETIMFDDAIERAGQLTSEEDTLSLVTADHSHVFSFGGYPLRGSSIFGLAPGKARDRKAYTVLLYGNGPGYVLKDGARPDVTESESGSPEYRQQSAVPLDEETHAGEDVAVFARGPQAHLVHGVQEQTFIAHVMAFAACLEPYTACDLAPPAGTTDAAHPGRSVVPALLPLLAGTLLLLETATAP
Assay [18] has as its target T3, Alkaline phosphatase, tissue-nonspecific isozyme (Homo sapiens, UniProt P05186).
T3 sequence (P05186 whole entry): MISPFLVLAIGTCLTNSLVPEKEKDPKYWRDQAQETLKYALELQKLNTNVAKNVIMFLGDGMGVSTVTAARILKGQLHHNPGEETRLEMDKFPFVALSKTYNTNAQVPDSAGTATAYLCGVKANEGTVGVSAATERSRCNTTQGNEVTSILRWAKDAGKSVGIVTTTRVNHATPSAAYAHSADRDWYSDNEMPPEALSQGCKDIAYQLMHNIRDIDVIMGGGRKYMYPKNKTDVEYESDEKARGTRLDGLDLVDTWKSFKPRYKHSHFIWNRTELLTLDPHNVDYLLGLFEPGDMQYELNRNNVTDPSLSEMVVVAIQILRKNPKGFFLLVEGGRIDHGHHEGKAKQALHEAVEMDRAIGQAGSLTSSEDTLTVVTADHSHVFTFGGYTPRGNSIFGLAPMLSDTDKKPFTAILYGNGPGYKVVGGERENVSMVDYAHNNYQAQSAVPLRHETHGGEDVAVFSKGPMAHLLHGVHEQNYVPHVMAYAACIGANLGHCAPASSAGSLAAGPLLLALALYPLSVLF
As to the kind of experiment: potency against alkaline phosphatase TNAP – biochemical, luminescent, dose response, SAR follow-up (AID 1056).

Sequence of Delta-type opioid receptor (P41143 whole entry): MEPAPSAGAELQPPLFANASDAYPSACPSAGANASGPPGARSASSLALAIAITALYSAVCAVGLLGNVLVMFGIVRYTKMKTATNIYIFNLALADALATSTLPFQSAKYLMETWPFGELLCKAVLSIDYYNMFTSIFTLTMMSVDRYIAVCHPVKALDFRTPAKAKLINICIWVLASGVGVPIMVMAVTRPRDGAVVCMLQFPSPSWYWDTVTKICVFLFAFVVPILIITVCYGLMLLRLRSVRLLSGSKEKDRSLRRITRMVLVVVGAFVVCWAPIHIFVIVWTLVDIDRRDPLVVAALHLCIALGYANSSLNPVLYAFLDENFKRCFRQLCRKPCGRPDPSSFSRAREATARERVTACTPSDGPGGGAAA

Consider `O=C(/C(=C/c1cccc(Cl)c1)c1nc2ccccc2[nH]1)c1ccccc1`, for which the EC50 in the assay with HEK293 [1] is > 20 µM (inactive); in [4], > 20 µM (inactive); in assay [6], 0.755 µM (active); in assay [8], 3.93 µM (active); in assay [9], 3.7 µM (active); in assay [11], 8.48 µM (active). The IC50 was 1.63 µM (active) in the assay on HEK293 [2], 13.4 µM (active) in the assay with HEK293 [3], 3.14 µM (active) in the assay on HEK293 [5] and > 20 µM (inactive) in the assay on HEK293 [7]. Also, the AC50 was 1.97 µM (active) in assay [10] and 4.22 µM (active) in the assay with INS1.

As for `CCc1nnc2n1N=C(c1ccc(-c3cc(Cl)ccc3Cl)o1)CS2`, the IC50 on Estrogen receptor is listed as 44 µM (not active). In addition, the EC50 was 27.1 µM (active) in assay [8], 95.9 µM (active) in assay [9] and 0.734 µM (active) in [12].

As to `Cc1ccc(S(=O)(=O)NCc2ccc(C(=O)NCCN3CCc4ccccc4C3)cc2)cc1`, the IC50 was > 32 µM (inactive) at Mu-type opioid receptor; > 20 µM (inactive) in [13]; > 20 µM (inactive) in assay [14]; > 32 µM (inactive) in [15]; 5.98 µM (active) in assay [16].

`O=C(Cn1ccnc1)c1ccc(O)c(O)c1`: the IC50 in assay [17] was 5.37 µM (active); in [18], > 100 µM (inactive).

By EC50 is commonly meant the concentration giving half of the maximal effect. What is called IC50 is the concentration needed to halve the response being measured. Broadly, the AC50 is the concentration at which the activity in the assay is half-maximal.
